# Test results as given in ChEMBL document CHEMBL1124039, “Angiotensin-converting enzyme inhibitors. 2. Perhydroazepin-2-one derivatives” (J Med Chem, 1988).
# Molecular target: T1, Angiotensin-converting enzyme (Oryctolagus cuniculus, UniProt P12822)
# T1 sequence (P12822 whole entry): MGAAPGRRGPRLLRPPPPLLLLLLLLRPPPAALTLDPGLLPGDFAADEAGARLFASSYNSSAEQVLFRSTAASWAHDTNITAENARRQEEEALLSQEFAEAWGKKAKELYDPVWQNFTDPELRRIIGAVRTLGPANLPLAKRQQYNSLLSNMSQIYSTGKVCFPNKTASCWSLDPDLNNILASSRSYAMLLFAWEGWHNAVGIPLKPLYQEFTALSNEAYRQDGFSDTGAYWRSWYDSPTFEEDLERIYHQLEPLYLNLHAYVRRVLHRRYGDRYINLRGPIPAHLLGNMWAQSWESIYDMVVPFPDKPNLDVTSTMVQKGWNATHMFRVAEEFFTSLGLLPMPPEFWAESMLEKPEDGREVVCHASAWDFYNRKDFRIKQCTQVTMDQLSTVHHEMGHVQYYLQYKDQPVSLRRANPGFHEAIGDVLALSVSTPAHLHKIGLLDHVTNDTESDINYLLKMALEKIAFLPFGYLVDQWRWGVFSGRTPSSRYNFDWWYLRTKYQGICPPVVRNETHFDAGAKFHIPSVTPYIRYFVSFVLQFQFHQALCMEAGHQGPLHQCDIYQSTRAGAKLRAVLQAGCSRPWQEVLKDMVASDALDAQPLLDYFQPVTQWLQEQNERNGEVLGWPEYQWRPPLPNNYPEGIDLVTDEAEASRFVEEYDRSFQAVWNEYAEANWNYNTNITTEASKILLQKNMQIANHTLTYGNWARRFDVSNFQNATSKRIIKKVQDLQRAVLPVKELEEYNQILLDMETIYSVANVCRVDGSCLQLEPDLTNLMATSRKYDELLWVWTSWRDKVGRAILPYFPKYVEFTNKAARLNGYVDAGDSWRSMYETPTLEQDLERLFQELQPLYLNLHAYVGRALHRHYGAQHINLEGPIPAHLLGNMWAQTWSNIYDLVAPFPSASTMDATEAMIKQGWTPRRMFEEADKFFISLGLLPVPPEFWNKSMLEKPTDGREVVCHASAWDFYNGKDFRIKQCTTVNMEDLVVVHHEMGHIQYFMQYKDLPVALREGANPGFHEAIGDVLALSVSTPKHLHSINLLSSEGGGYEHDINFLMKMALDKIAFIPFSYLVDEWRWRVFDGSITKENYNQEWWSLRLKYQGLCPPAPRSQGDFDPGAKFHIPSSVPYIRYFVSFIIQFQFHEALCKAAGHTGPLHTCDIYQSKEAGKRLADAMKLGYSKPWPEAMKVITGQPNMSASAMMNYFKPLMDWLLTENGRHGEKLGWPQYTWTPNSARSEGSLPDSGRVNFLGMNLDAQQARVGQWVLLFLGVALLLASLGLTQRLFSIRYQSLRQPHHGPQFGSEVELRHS
# Assay: Concentration required for 50% inhibition of rabbit lung Angiotensin I converting enzyme with 5 mM hippuryl-histidyl-leucine as substrate
row,SMILES,IC50
1,O=C(O)CN1C(=O)[C@@H](N[C@@H](CCc2ccccc2)C(=O)O)CCC[C@@H]1c1ccccc1,16.2 nM
2,O=C(O)CN1C[C@H](c2ccccc2)CC[C@H](N[C@@H](CCc2ccccc2)C(=O)O)C1=O,4.3 nM
3,O=C(O)CN1C(=O)[C@@H](N[C@@H](CCc2ccccc2)C(=O)O)CCC[C@H]1c1ccccc1,3.6 nM
4,O=C(O)CN1C[C@@H](c2ccccc2)CC[C@H](N[C@@H](CCc2ccccc2)C(=O)O)C1=O,3.1 nM
